Laboratory results reported in patent publication US11602510B2, “Agent for use in the treatment of dyslipidemia” (Flexopharm Brain GMBH & Co. KG, priority 2017, dated 2023).
Entries after “also recorded” stand apart in the source; their conditions may differ. Read-outs that look alike come from different tables or passages of the source.

Tests used:
PCSK9 = PCSK9 expression by reverse transcriptase-polymerase chain reaction; assay type: in vivo; conditions: RT-PCR, FIG. 7
LDL receptor = LDL receptor expression by reverse transcriptase-polymerase chain reaction in the liver; assay type: in vivo; conditions: RT-PCR in the liver following treatment, FIG. 8
HMG-CoA synthase = HMG-CoA synthase mRNA expression by reverse transcriptase-polymerase chain reaction; assay type: in vivo; conditions: RT-PCR, FIG. 5
[1] = system: patients whose LDL cholesterol level had been adjusted to a stable level by atorvastatin; assay: Patient study: propionate added to stable atorvastatin treatment, LDL value; assay type: in vivo, human; conditions: for LDL value / LDL cholesterol level (in words): 2×500 mg propionate for more than eight weeks in addition to atorvastatin, five patients, FIG. 9
Experimental: The decrease appears to be greatest in patients showing the highest initial LDL value,
FIG. 10 is a block diagram showing the result of a patient study. On the left, the diagram indicates the averaged initial value of the patients stable through administration of atorvastatin, on the right the averaged LDL value of the patients after taking 2×500 mg of propionate daily for at least eight weeks.
The patient study attests to the positive influence of 2×500 mg of sodium propionate in addition to atorvastatin.

patients = conditions: high doses, cited from earlier work
[2] = system: patients with dyslipidemia; assay: LDL cholesterol in patients with dyslipidemia treated with propionic acid; assay type: in vivo, human; conditions: n=24, initial LDL cholesterol >110 mg/dl, after 2-6 months of treatment, FIG. 4
HMG-CoA reductase = HMG-CoA reductase expression by reverse transcriptase-polymerase chain reaction; assay type: in vivo; conditions: RT-PCR, FIG. 6
[3] = system: hypercholesterolemic mouse model; assay: LDL cholesterol in the hypercholesterolemic mouse model (high fat diet); assay type: in vivo
Excerpt: HF: High Fat (60 KJ % fat content); PA: Propionic Acid. […] HFD: High Fat Diet; PA: Propionic Acid.

pigs = conditions: comparatively higher doses; cited from earlier work
[4] = system: rats with normal and cholesterol-rich diets; conditions: cited from earlier work
rats = conditions: oral and rectal administration of high doses; cited from earlier work

Row | Compound | expression of PCSK9 (PCSK9) | expression of the LDL receptor (LDL receptor) | expression of HMG-CoA synthase at mRNA level (HMG-CoA synthase) | expression of PCSK9 (PCSK9; listed as Propionates) | reduction of the LDL value on average ([1]; 2×500 mg propionate daily for at least eight weeks on top of stable atorvastatin, FIG. 10) | LDL value / LDL cholesterol level (in words) [1] | serum cholesterol level (patients; one case) | HDL serum cholesterol concentration (patients; second case) | cholesterol-lowering effect (LDL cholesterol) [2] | expression of HMG-CoA reductase (HMG-CoA reductase) | expression of HMG-CoA reductase (HMG-CoA reductase; listed as Propionate) | expression of HMG-CoA synthase at mRNA level (HMG-CoA synthase; listed as Propionate) | LDL cholesterol ([3]; propionate alone, High Fat (60 KJ % fat content), FIG. 2) | LDL cholesterol ([3]; propionic acid additionally administered to atorvastatin, High Fat Diet, FIG. 3) | cholesterol concentration in back fat (pigs) | cholesterol content in the liver (pigs) | total cholesterol (pigs) | total cholesterol ([4]; rats consuming cholesterol-rich food, about 100 mg per day) | total cholesterol ([4]; rats fed a normal diet) | liver cholesterol levels (rats)
1 | CC(C)c1c(C(=O)Nc2ccccc2)c(-c2ccccc2)c(-c2ccc(F)cc2)n1CC[C@@H](O)C[C@@H](O)CC(=O)O [atorvastatin, reference compound] | increased expression; also recorded: increase in PCSK9 expression | Neither the propionic acid nor the atorvastatin has an effect | but not by atorvastatin |  |  |  |  |  |  |  |  |  |  |  |  |  |  |  |  | 
2 | CCC(=O)O [propionic acid, Propionic acid] | no influence | Neither the propionic acid nor the atorvastatin has an effect | negatively regulated; also recorded: reduced expression | do not have an effect | ~40% | the LDL value was reduced | slight reduction | increased | cholesterol-lowering effect | negatively regulated; also recorded: reduced expression | significantly down-regulated | significantly down-regulated; also recorded: much more pronounced than that of atorvastatin | reduction of LDL cholesterol | trend towards further reduction of LDL cholesterol | significantly higher cholesterol concentration | slight increase | reduced total cholesterol |  |  | 
3 | CCC(=O)[O-].[Na+] [sodium propionate] |  |  |  |  |  | further significantly reduced |  |  |  |  |  |  |  |  |  |  |  | significant reduction in total cholesterol | practically no effect | only insignificantly
